Reference: US20030199743A1, “Screening test and procedure using apocrine sweat” (priority 2000, published 2003)

Experiment: THC in blood, eccrine sweat, apocrine sweat and urine after smoking a THC containing product
Assay type: in vivo, human
Experimental: Samples of apocrine and eccrine sweat were collected prior to oral consumption of a THC containing product. No THC was detected in either sample. The test individual then orally consumed (smoked) a quantity of a THC containing product. Small quantities (0.5 cc) of apocrine and eccrine sweat was separately collected over a period of 30 minutes under ambient conditions to induce sweating. When the collected samples were tested using standard laboratory tests for THC metabolites […].

In the case of `CCCCCc1cc(O)c2c(c1)OC(C)(C)[C@@H]1CCC(C)=C[C@@H]21` [Delta 9 THC, delta nine tetrahydrocannibinol], the “Delta 9 THC concentration in apocrine sweat” value (apocrine sweat (0.5 cc) collected over 30 minutes after smoking a THC containing product) is reported as 107 nanograms/ml, the “Delta 9 THC concentration in blood” value (blood, test individual after smoking a THC containing product, standard laboratory test for THC) is reported as 21 nanograms/ml and the “Delta 9 THC concentration in eccrine sweat” value (eccrine sweat (0.5 cc) collected over 30 minutes after smoking a THC containing product) is reported as 4 nanograms/ml. The “Quantity of THC in apocrine sweat relative to blood” value (ratio apocrine sweat / blood) was 5.1 times, the “Quantity of THC in apocrine sweat relative to eccrine sweat” value (ratio apocrine sweat / eccrine sweat) was 26.75 times and the “Delta 9 THC concentration in urine” value (urine, after smoking a THC containing product) was “undetect-”.
